A value given as a limit tells only on which side of the number the result lay.

Data set [1] is described as follows: DPPH free radical scavenging assay. In kind it is biochemical. How it is done: The antioxidant capacity of antcin K was examined by 1,1-diphenyl-2-trinitrophenylhydrazyl (DPPH) assay in this study. We formulated DPPH (D9132, Sigma-Aldrich Co., St. Louis, MO, USA) at a concentration of 1.5 mM per 1 mL and added 9 mL of methanol (322415, Sigma-Aldrich Co., St. Louis, MO, USA) to the mixed solution. The 100 μL of DPPH and 100 μL of 10, 20, and 50 μg/mL of test samples were taken, shaken, and mixed evenly, then placed at room temperature for 30 min in the dark. After that, the absorbance was measured at 517 nm using an ultraviolet/visible light spectrometer (Microplate Spectrophotometer, uQuant, Biotek Instruments, Inc., Winooski, VT, USA).
Different concentrations of test samples were prepared and compared with the standard L-Ascorbic acid (L-AA) (A5960, Sigma-Aldrich Co., St. Louis, MO, USA). Based on the reduction percentage of the absorbance value observed in the control group, the antioxidant capacity of each test sample to scavenge DPPH free radicals can be judged. After that, the test sample with the most robust ability to scavenge DPPH free radicals was selected and repeated three times. The formula is as follows: DPPH free radical scavenging rate (%)=(1−(absorption value of experimental group/absorption value of control group))×100.

Data set [2] concerns SVEC4-10 vascular endothelial cells. Briefly: MTT cell viability assay. The class given is cell-based. The conditions noted are these: for cell viability of vascular endothelial cells: sham = 100%. How it is done:
(§1) Vascular endothelial cells (SVEC4-10) were purchased from the Cell Bank of Hsin-Chu Food Industry Development Institute (FIRDI, Cat no: BCRC-60220). SVEC4-10 cells were cultured in high-glucose DMEM (Dulbecco's Modified Eagle Medium) (Gibco BRL, Grand Island, NY, USA) and supplemented with 10% Fetal Bovine Serum (FBS) (HyClone, Logan, UT, USA), 1.5 g/L sodium bicarbonate, 0.11 g/L sodium pyruvate, 4 mM L-glutamine, 100 U/mL penicillin, and 100 μg/mL streptomycin (Gibco BRL, Grand Island, NY, USA).
These cells were grown in a culture medium and maintained in a humidified incubator at 37° C. and 5% CO2. Vascular endothelial cells were digested with 0.25% trypsin (Gibco BRL, Grand Island, NY, USA) for approximately 1 min until most cells detached. All cell densities were adjusted to 1×10^5 cells per well for each 24-well culture plate. After vascular endothelial cells were cultured for 24 h, in the hyperlipidemia group, 0.75 mM palm acid oil (CAS 57-10-3-800508; Sigma-Aldrich Co., St. Louis, MO, USA) (Oh et al., 2018) was added, and 10, 20, and 50 μg/mL of antcin K in each experiment was individually added.
We used a 3-(4,5-Dimethylthiazol-2-yl)-2,5-diphenyltetrazolium bromide (MTT) assay to examine the cell viability of antcin K in this study. A total of 1×10^5 cells/mL SVEC4-10 cells were added to a 24-well plate, and 0.5 mM palm acid oil (Sigma-Aldrich Co., St. Louis, MO, USA) was partially added, and 10, 20, and 50 μg/mL of test samples were added to SVEC4-10 cells, followed by culturing within 24 h. After adding 0.5 mg/mL of MTT solution (M5655, Sigma-Aldrich Co., St. Louis, MO, USA) and culturing for 2 h, the supernatant was removed, and 100 μL/well of DMSO organic solvent was added, followed by a 5 min shaking and then absorbance measurement at 570 nm.

The next data set relates to VCAM-1. Briefly: Immunofluorescence staining of VCAM-1 in vascular endothelial cells. Conditions: 20 μg/mL with 0.75 mM palm acid oil; p<0.01. In kind it is cell-based, mouse.
The next data set deals with TNF-α. Briefly: ELISA of TNF-α in RAW264.7 macrophages. The class given is cell-based, mouse. The conditions noted are these: 20 μg/mL with 0.75 mM palm acid oil (856.9 without).
The test system of another data set is IL-1β. Kind of data set: ELISA of IL-1β in RAW264.7 macrophages. The conditions noted are these: 20 μg/mL with 0.75 mM palm acid oil (272.3 without). The class given is cell-based, mouse.
Data set [3] relates to vascular endothelial cells. Kind of data set: Cellular lipid deposition assay (oil red O staining). The class given is cell-based. Conditions: different concentrations of antcin K. How it is done: We used oil red O staining which was clearly described in a previous report (Luo et al., 2021) to examine cellular lipid deposition. RAW264.7 macrophages were fixed with 2% paraformaldehyde for 10-15 min at room temperature, washed three times with phosphate-buffered saline (PBS) and twice with ddH2O, and stained with 5% oil red O dye for 15 min at room temperature, then the supernatant was discarded. Vascular endothelial cells and RAW264.7 macrophages were infiltrated with 60% isopropanol, washed twice with ddH2O, and photographed with an optical microscope (Olympus BH2 system light microscope, Olympus Corporation, Tokyo, Japan).

Another data set relates to KLF4. Briefly: Immunofluorescence staining of KLF4 in vascular endothelial cells. The class given is cell-based, mouse. Conditions: 20 μg/mL with 0.75 mM palm acid oil; p<0.01. On the procedure: as §1
These cells were grown in a culture medium and maintained in a humidified incubator at 37° C. and 5% CO2. […]
We used immunofluorescence staining to examine expressions of KLF4 and CD36. […] Note that this step needs to be protected from light at the beginning Nuclei were stained with 1 μg/mL diamino-2-phenilindole (DAPI) (D3286, Sigma-Aldrich Co., St. Louis, MO, USA) for 10 min at room temperature after washing three times with PBS and mounted with a fluorescent protectant-containing adhesive to reduce fluorescence decay. Fluorescent images were obtained using a Leica DM IRB inverted fluorescence microscope (Leica Microsystems, Wetzlar, Germany), and analysis was performed using Leica Application Suite software (LAS) V4.12 s (Leica Microsystems, Wetzlar, Germany). The Rhodamine fluorescence-labeled cytoskeleton was visualized at 565 nm by exciting cells at 540 nm. […]

As for `C=C(CC[C@@H](C)[C@H]1CC[C@H]2C3=C(C(=O)C[C@]12C)[C@@]1(C)CC[C@H](O)[C@](C)(O)C1CC3O)C(C)C(=O)O` (stereo partly drawn) [antcin K, 3a,4b,7b-tri-hydroxy4a-methylergosta-8,24(28)-dien-11-on-26-oic acid], the “free radicals scavenging efficiency (DPPH)” value in data set [1] (20 μg/mL) was 96.82%; in data set [1] (50 μg/mL), 98.81%. For the same compound, the “cell viability of vascular endothelial cells” value was found to be 71.5% in data set [2] (10 μg/mL with 0.75 mM palm acid oil), 84.6% in data set [2] (20 μg/mL with 0.75 mM palm acid oil) and 109.2% in data set [2] (50 μg/mL with 0.75 mM palm acid oil). Also, the “change of cell viability of vascular endothelial cells” value in data set [2] (10, 20 and 50 μg/mL without palm acid oil damage) was “not very obvious”. Further, the IC50 in data set [2] (Mus musculus, SVEC4-10, antcin K treatment 0-50 μg/mL, MTT) is > 50 µg/mL. The “expression of VCAM-1 in palm acid oil-treated vascular endothelial cells” value in the data set with VCAM-1 was “significantly decreased”. The “expression of TNF-α of RAW264.7 macrophages” value with TNF-α stood at 690.7 pg/mL. The “expression of IL-1β of RAW264.7 macrophage cells” value with IL-1β is reported as 189.2 pg/mL. Also, the “lipid deposition in palm acid oil-treated vascular endothelial cells” value in data set [3] is “decreased”. Further, the “expression of KLF4 in palm acid oil-treated vascular endothelial cells” value in the data set on KLF4 is on record as “significantly increased”.
